Data as given in EPA's ToxValDB 9.5 (doi:10.2903/j.efsa.2010.1771).
Converted amounts (≈) assume the structure as drawn.

Assays:
Canidae = conditions: oral, Dog Other, hematological
Typhlodromus pyri = conditions: not reported; mortality
Anas platyrhynchos = conditions: short-term; oral; feed; mortality
Daphnia magna = conditions: chronic/long-term; duration: 21 days; reproduction
Apis mellifera = conditions: acute; duration: 48 hours; oral; unspecified; mortality
Tagia sp. = conditions: acute; mortality

`CCSC(C)CC1CC(=O)C(C(CC)=NOC/C=C/Cl)=C(O)C1` (stereo not drawn) [Clethodim] was tested, and the NOAEL (Canidae; chronic, duration: 1 years) was 21 mg/kg-day, the NOAEL (Canidae; subchronic, duration: 90 days) was 21 mg/kg-day and the LD50 (Colinus virginianus; acute, oral, mortality) was over 1640 mg/kg. For the same compound, the NOEL (Colinus virginianus; reproduction developmental, reproduction) was 17 mg/kg-day, the LEL (Typhlodromus pyri) was 9.6 g/ha and the LC50 (Anas platyrhynchos) was over 851 mg/kg-day. For the same compound, the NOEC (Daphnia magna) was 49 mg/L, the LD50 (Apis mellifera) was over 43 µg/piece and the LD50 (Rattus norvegicus; acute, oral, mortality) was 1130 mg/kg. For the same compound, the NOAEL (Rattus norvegicus; chronic, duration: 2 years, organ weight) was 16 mg/kg-day, the LC50 (Tagia sp.) was 129 mg/kg and the LC50 (Oncorhynchus mykiss; acute, duration: 96 hours, mortality) was 25 µg/mL (≈ 69.5 µM). For the same compound, the NOEC (Oncorhynchus mykiss; chronic/long-term, duration: 21 days) was 3.9 mg/L.
